In PMC9973015 (mBio, 2023):
pEC50: −log10 of the molar value.

Assays:
[1] = system: SARS-CoV-2 3CLpro L50F E166A L167F (USA-WA1 background); format: cell-based; details: read-out: L50F E166A L167V EC50
[2] = target: SARS-CoV-2 3CLpro L50F E166A L167F (Severe acute respiratory syndrome coronavirus 2, UniProt P0DTD1, E3429A/L3313F/L3430F); format: biochemical
[3] = system: SARS-CoV-2 3CLpro E166A L167F (USA-WA1 background); format: cell-based; details: for pEC50: read-out: E166A L167V EC50
[4] = system: SARS-CoV-2 3CLpro L50F (USA-WA1 background); format: cell-based
SARS-CoV-2 3CLpro E166V = details: cited from earlier work
[5] = system: SARS-CoV-2 L50F E166A L167F; format: cell-based

| Structure (SMILES) | pEC50 [1] | low concentration that partially rescues impaired enzymatic activity of the mutants [2] | pEC50 [3] | pEC50 [4] | level of resistance conferred by E166V (SARS-CoV-2 3CLpro E166V) | E166A L167V FC, fold change of EC50 [3] | L50F FC, fold change of EC50 [4] | pEC50 [5] |
| --- | --- | --- | --- | --- | --- | --- | --- | --- |
| COc1cccc2[nH]c(C(=O)N3C[C@@H]4CCC[C@@H]4[C@H]3C(=O)N[C@@H](C[C@@H]3CCCNC3=O)C(=O)CO)cc12 [ALG-097161, (1S,3aR,6aS)-N-((S)-4-Hydroxy-3-oxo-1-((S)-2-oxopiperidin-3-yl)butan-2-yl)-2-(4-methoxy-1H-indole-2-carbonyl)octahydrocyclopenta[c]pyrrole-1-carboxamide] | […] | […] | 5.54 | 6.01 | – | – | – | – |
| Cn1cnc(Cn2c(=O)[nH]/c(=N\c3cc4cn(C)nc4cc3Cl)n(Cc3cc(F)c(F)cc3F)c2=O)n1 [Ensitrelvir, ensitrelvir] | 5.03 | – | 5.10 | 6.62 | 23 | 8.0 [38] (2.8–12.7) (n = 4) | 0.24 [1.1] (0.18–0.31) | – |
| CC(C)(C)[C@H](NC(=O)C(F)(F)F)C(=O)N1C[C@H]2[C@@H]([C@H]1C(=O)N[C@H](C#N)C[C@@H]1CCNC1=O)C2(C)C [Nirmatrelvir, nirmatrelvir] | 5.49 | – | 5.96 | 6.80 | 100 | – | – | 5.21 |
| COc1cccc2[nH]c(C(=O)N[C@@H](CC(C)C)C(=O)N[C@@H](C[C@@H]3CCNC3=O)C(=O)CO)cc12 [PF-00835231] | – | around 0.05 μM | – | – | – | – | – | 5.36 |
